Patent US20040044075A1, “Alpha acyloxyacetamides for kallikrein and urokinase inhibition” (Genzyme Corporation, priority 2002, published 2004)

Biological target: Kallikrein (Homo sapiens, UniProt P03952)
Experiment: Kallikrein inhibition assay (fluorometric, H-Pro-Phe-Arg-AMC substrate)
Assay type: biochemical
Conditions: 24° C, HEPES pH 7.5, 5% DMSO, fluorescence after ten minutes
Procedure: Kallikrein activity was assayed fluorometrically with an aminomethyl coumarin-containing (AMC-containing) substrate according to procedures described in Zimmerman et al., Proc. Natl. Acad. Sci. USA 75:750 (1978), the entire teachings of which are incorporated herein by reference. Specifically, enzyme assays with varying concentrations of the fluorogenic substrate H-Pro-Phe-Arg-AMC were conducted at 24° C in 0.05 M 4-(2-hydroxyethyl)-piperazineethanesulfonic acid (HEPES) buffer, pH 7.5/5% (vol/vol) dimethyl sulfoxide. The final volume was 0.1 ml in each assay. Fluorescence was read after ten minutes at 360 nm (activation wavelength) and 460 nm (emission wavelength).

Chain of Kallikrein (P03952 whole entry): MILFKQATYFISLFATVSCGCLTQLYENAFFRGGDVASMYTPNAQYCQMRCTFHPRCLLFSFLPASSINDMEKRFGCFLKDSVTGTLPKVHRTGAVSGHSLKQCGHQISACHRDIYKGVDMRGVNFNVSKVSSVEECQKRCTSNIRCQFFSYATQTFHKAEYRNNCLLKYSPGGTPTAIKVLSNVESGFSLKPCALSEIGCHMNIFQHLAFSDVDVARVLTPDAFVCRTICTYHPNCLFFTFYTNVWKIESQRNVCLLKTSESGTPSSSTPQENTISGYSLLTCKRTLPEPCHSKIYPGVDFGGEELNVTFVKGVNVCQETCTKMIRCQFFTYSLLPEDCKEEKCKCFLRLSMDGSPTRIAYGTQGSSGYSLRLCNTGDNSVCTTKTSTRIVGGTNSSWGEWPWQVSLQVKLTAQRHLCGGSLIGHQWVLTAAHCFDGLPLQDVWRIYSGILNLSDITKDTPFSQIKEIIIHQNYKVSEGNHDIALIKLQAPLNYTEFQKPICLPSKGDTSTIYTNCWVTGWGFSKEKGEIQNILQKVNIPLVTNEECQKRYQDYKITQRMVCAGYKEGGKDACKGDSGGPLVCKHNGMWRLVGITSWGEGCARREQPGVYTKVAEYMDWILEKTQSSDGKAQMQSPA

Structure (SMILES) | IC50 [µM]
COc1cc(CNC(=O)C(OC(=O)CSc2ncccn2)c2cccc(C#N)c2)cc(OC)c1OC (stereo not shown) [Compound (20)] | 1.48
COc1cc(CNC(=O)C(OC(=O)c2csc3cc4c(cc23)OC(C)(C)O4)c2ccc(Br)cc2)cc(OC)c1OC (stereo not shown) [Compound (36)] | 3.67
COc1cc(CNC(=O)C(OC(=O)CCC(=O)c2ccccc2)c2ccc(SC)cc2)cc(OC)c1OC (stereo not shown) [Compound (13)] | 0.874
COc1ccc(OC)c(C(=O)CCC(=O)OC(C(=O)NCc2cc(OC)c(OC)c(OC)c2)c2ccc(C(F)(F)F)cc2)c1 (stereo not shown) [Compound (34)] | 0.731
COc1ccc(CC(=O)OC(C(=O)NC2CC2)c2ccc(C#N)cc2)cc1 (stereo not shown) [Compound (35)] | 0.391
COc1cccc(OCCC(=O)OC(C(=O)NCc2cc(OC)c(OC)c(OC)c2)c2cccc(C#N)c2)c1 (stereo not shown) [Compound (19)] | 1.69
COC(=O)c1ccc(C(OC(=O)CCC(=O)c2ccccc2)C(=O)NCc2cc(OC)c(OC)c(OC)c2)cc1 (stereo not shown) [Compound (11)] | 0.442
COc1ccc(NC(=O)C(OC(=O)CCOc2ccccc2)c2ccc(Br)cc2)cc1 (stereo not shown) [Compound (30)] | 0.714
COc1ccc(OC)c(C(=O)CCC(=O)OC(C(=O)Nc2ccc(OC)c(OC)c2)c2cccc(C#N)c2)c1 (stereo not shown) [Compound (16)] | 0.253
COc1cc(CNC(=O)C(OC(=O)CCC(=O)c2ccccc2)c2ccccc2)cc(OC)c1OC (stereo not shown) [Compound (12)] | 0.737
COc1ccc(CCNC(=O)C(OC(=O)CSc2ncccn2)c2ccc(C#N)cc2)cc1 (stereo not shown) [Compound (31)] | 0.543
COc1cc(CNC(=O)C(OC(=O)CCC(=O)c2ccccc2)c2ccc(S(C)(=O)=O)cc2)cc(OC)c1OC (stereo not shown) [Compound (14)] | 1.18
O=C(CCOc1ccccc1)OC(C(=O)Nc1ccc2ncccc2c1)c1ccc(Br)cc1 (stereo not shown) [Compound (32)] | 1.34
NC(=O)c1ccc(NC(=O)C(OC(=O)CCOc2ccccc2)c2ccc(Br)cc2)cc1 (stereo not shown) [Compound (33)] | 0.459
COc1ccc(OC)c(C(=O)CCC(=O)OC(C(=O)Nc2ccc(OC)c(OC)c2)c2ccc(Br)cc2)c1 (stereo not shown) [Compound (25)] | 0.275
N#Cc1ccc(C(OC(=O)Cc2c[nH]c3ccccc23)C(=O)NC2CC2)cc1 (stereo not shown) [Compound (38)] | 3.77
COc1cc(CNC(=O)C(OC(=O)Cc2c[nH]c3ccc(Br)cc23)c2ccc(Br)cc2)cc(OC)c1OC (stereo not shown) [Compound (39)] | 2.68
COc1ccc(OC)c(C(=O)CCC(=O)OC(C(=O)NC2CC2)c2ccc(Br)cc2)c1 (stereo not shown) [Compound (1)] | 0.174
COc1cc(CNC(=O)C(OC(=O)CCCc2ccccc2)c2cccc(C#N)c2)cc(OC)c1OC (stereo not shown) [Compound (21)] | 1.18
N#Cc1ccc(C(OC(=O)CCC2CCCCC2)C(=O)NC2CC2)cc1 (stereo not shown) [Compound (3)] | 1.06
COc1ccc(CC(=O)OC(C(=O)Nc2ccc(OC)c(OC)c2)c2ccc(C#N)cc2)cc1 (stereo not shown) [Compound (22)] | 0.428
COc1ccc(CC(=O)OC(C(=O)Nc2ccc(OC)c(OC)c2)c2ccc(Br)cc2)cc1 (stereo not shown) [Compound (28)] | 0.68
COc1cc(CNC(=O)C(OC(=O)CSc2nc(C)cc(C)n2)c2cccc(C#N)c2)cc(OC)c1OC (stereo not shown) [Compound (18)] | 6.47
N#Cc1ccc(C(OC(=O)Cc2c[nH]c3ccc(Br)cc23)C(=O)NC2CC2)cc1 (stereo not shown) [Compound (2)] | 0.167
COc1ccc(OC)c(C(=O)CCC(=O)OC(C(=O)NCc2cc(OC)c(OC)c(OC)c2)c2ccccc2)c1 (stereo not shown) [Compound (37)] | 1.67
COc1ccc(CC(=O)OC(C(=O)NCc2cc(OC)c(OC)c(OC)c2)c2ccc(C#N)cc2)cc1 (stereo not shown) [Compound (23)] | 0.576
COc1cc(CNC(=O)C(OC(=O)CSc2nccc(C)n2)c2cccc(C#N)c2)cc(OC)c1OC (stereo not shown) [Compound (17)] | 0.384
COc1cc(CNC(=O)C(OC(=O)CCOc2ccccc2)c2cccc(C#N)c2)cc(OC)c1OC (stereo not shown) [Compound (15)] | 0.577

Biological target: Urokinase (Homo sapiens, UniProt P00749)
Experiment: Urokinase assay (fluorometric, Cbz-Gly-Gly-Arg-AMC substrate)
Assay type: biochemical
Conditions: 24° C, HEPES pH 7.5, 5% DMSO, fluorescence after ten minutes; read-out: IC50 (μM), urokinase inhibition
Procedure: Urokinase activity was assayed fluorometrically with an aminomethyl coumarin-containing (AMC-containing) substrate according to procedures described in Zimmerman et al, Proc. Natl. Acad. Sci. USA 75:750 (1978), the entire teachings of which are incorporated herein by reference. Specifically, enzyme assays with varying concentrations of the fluorogenic substrate Cbz-Gly-Gly-Arg-AMC were conducted at 24° C. in 0.05 M 4-(2-hydroxyethyl)-piperazineethanesulfonic acid (HEPES) buffer, pH 7.5/5% (vol/vol) dimethyl sulfoxide; the final volume was 0.1 ml in each assay.
Fluorescence was read after ten minutes at 360 nm (activation wavelength) and 460 nm (emission wavelength).

Structure (SMILES) | IC50 [µM]
CCOC(=O)CCNC(=O)C(OC(=O)Cc1ccc(OC)cc1)c1ccc(C#N)cc1 (stereo not shown) [Compound (53)] | 1.06
CCSCCNC(=O)C(OC(=O)Cc1ccc(OC)cc1)c1ccc(C#N)cc1 (stereo not shown) [Compound (52)] | 0.628
COc1ccc(CC(=O)OC(C(=O)NCc2ccc3c(c2)OCO3)c2ccc(C#N)cc2)cc1 (stereo not shown) [Compound (10)] | 0.783
COc1ccc(CC(=O)OC(C(=O)NC2CC2)c2ccc(C#N)cc2)cc1 (stereo not shown) [Compound (7)] | 0.11
COc1ccc(CCNC(=O)C(OC(=O)CSc2ncccn2)c2ccc(OC)cc2)cc1 (stereo not shown) [Compound (47)] | 2.38
COc1ccc(CC(=O)OC(C(=O)Nc2ccc(OC)c(OC)c2)c2ccc(C#N)cc2)cc1 (stereo not shown) [Compound (41)] | 2.32
O=C(CSc1ncccn1)OC(C(=O)NCc1ccc2c(c1)OCO2)c1ccc(C(F)(F)F)cc1 (stereo not shown) [Compound (50)] | 3.1
COc1cc(CNC(=O)C(OC(=O)CCOc2ccccc2)c2cccc(C#N)c2)cc(OC)c1OC (stereo not shown) [Compound (40)] | 6.09
COc1ccc(C(OC(=O)CSc2ncccn2)C(=O)NCc2ccc3c(c2)OCO3)cc1 (stereo not shown) [Compound (49)] | 1.37
COc1ccc(NC(=O)C(OC(=O)CSc2ncccn2)c2ccc(Br)cc2)cc1OC (stereo not shown) [Compound (43)] | 3.39
COc1ccc(CC(=O)OC(C(=O)NC2CC2)c2ccccc2)cc1 (stereo not shown) [Compound (54)] | 0.814
COc1ccc(CCNC(=O)C(OC(=O)CSc2ncccn2)c2ccc(Br)cc2)cc1 (stereo not shown) [Compound (45)] | 1.41
COc1ccc(CC(=O)OC(C(=O)NCc2cc(OC)c(OC)c(OC)c2)c2ccc(C#N)cc2)cc1 (stereo not shown) [Compound (42)] | 1.97
COc1ccc(CCNC(=O)C(OC(=O)CSc2ncccn2)c2ccc3ccccc3c2)cc1 (stereo not shown) [Compound (46)] | 2.93
COc1cc(CNC(=O)C(OC(=O)CCC2CCCCC2)c2cccc(C#N)c2)cc(OC)c1OC (stereo not shown) [Compound (44)] | 1.78
COc1ccc(CCNC(=O)C(OC(=O)CSc2ncccn2)c2ccc(C(F)(F)F)cc2)cc1 (stereo not shown) [Compound (48)] | 5.38
N#Cc1ccc(C(OC(=O)CCC2CCCCC2)C(=O)NC2CC2)cc1 (stereo not shown) [Compound (56)] | 0.055
COc1ccc(CCNC(=O)C(OC(=O)Cc2ccc(OC)cc2)c2ccc(C#N)cc2)cc1 (stereo not shown) [Compound (51)] | 1.22
N#Cc1ccc(C(OC(=O)Cc2c[nH]c3ccccc23)C(=O)NC2CC2)cc1 (stereo not shown) [Compound (4)] | 0.086
N#Cc1ccc(C(OC(=O)CSc2ncccn2)C(=O)NC2CC2)cc1 (stereo not shown) [Compound (6)] | 0.032
COc1ccc(CCNC(=O)C(OC(=O)CSc2ncccn2)c2ccc(C#N)cc2)cc1 (stereo not shown) [Compound (8)] | 0.112
N#Cc1ccc(C(OC(=O)Cc2c[nH]c3ccc(Br)cc23)C(=O)NC2CC2)cc1 (stereo not shown) [Compound (5)] | 0.029
N#Cc1ccc(C(OC(=O)CCC2CCCC2)C(=O)NC2CC2)cc1 (stereo not shown) [Compound (55)] | 0.151
COc1cc(CNC(=O)C(OC(=O)CSc2ncccn2)c2cccc(C#N)c2)cc(OC)c1OC (stereo not shown) [Compound (9)] | 0.923
